Results on three molecules are retold here after PMC9931769, “Bacterial origins of thymidylate metabolism in Asgard archaea and Eukarya” (Nature Communications, 2023).

One data set has as its target T1, Psyn ThyX (Promethearchaeum syntrophicum, UniProt A0A5B9D7C8).
T1 sequence (A0A5B9D7C8 1-298): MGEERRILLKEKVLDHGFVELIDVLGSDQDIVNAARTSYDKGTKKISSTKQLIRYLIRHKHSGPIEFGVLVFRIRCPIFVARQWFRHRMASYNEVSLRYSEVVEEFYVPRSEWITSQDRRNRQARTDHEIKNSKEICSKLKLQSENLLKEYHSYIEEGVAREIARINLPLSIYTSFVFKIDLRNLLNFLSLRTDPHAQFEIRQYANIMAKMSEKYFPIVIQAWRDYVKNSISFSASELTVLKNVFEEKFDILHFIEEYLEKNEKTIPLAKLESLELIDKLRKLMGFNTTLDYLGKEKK
Nature of the data set: inhibition of NADPH oxidation, absorbance at […] nm. It is filed as biochemical.

Substrate in the data set “purified protein”: O=c1ccn([C@H]2C[C@H](O)[C@@H](COP(=O)(O)O)O2)c(=O)[nH]1
The experiment in a line: purified protein. Type of data set: biochemical, Promethearchaeum syntrophicum. The following applies: 50 mM sodium phosphate pH 8, 300 mM NaCl, 2 mM MgCl2, 50 μM FAD, 750 μM NADPH, 0.4 μM enzyme, 25 °C.

At Psyn ThyX, `Nc1nc2c(c(=O)[nH]1)N1CN(c3ccc(C(=O)N[C@@H](CCC(=O)O)C(=O)O)cc3)C[C@H]1CN2` [CH2H4folate] yielded an inhibition at 200 µM greater than 50%.
On the same count and under the same terms, then `Nc1nc2c(c(=O)[nH]1)N[C@@H](CNc1ccc(C(=O)N[C@@H](CCC(=O)O)C(=O)O)cc1)CN2` [H4folate], with greater than 50%.

B1: Psyn ThyX (Promethearchaeum syntrophicum) (protein)
chain: T1 sequence (A0A5B9D7C8 1-298)
Consider B1, for which the Km in the data set “purified protein” stood at 0.235 ± 0.035 µM.

Usually inhibition stands for how much of the control response was suppressed. Higher therefore signals a response far below the control. What is called Km is the concentration of substrate that gives half-maximal velocity.
